From US9790169B2, “IDO inhibitors” (BRISTOL-MYERS SQUIBB COMPANY, priority 2015, dated 2017)
pIC50: −log10 of the molar value.

Biological target: human IDO1 (Homo sapiens, UniProt P14902)
Experiment: Assessment of human IDO-1 inhibitory activity in HEK cells (human IDO1/HEK293 cells, kynurenine read-out with Ehrlich reagent, absorbance 490 nm)
Assay type: cell-based
Design: expressed in transfected cells
Details: HEK Human IDO-1 cellular assay
How it was run: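 HEK293 cells stably expressing human IDO1 were seeded at 10,000 per well in phenol red-free RPMI with 10% FBS, treated with compound for 20 h at 37 °C. Kynurenine was measured after TCA (0.2% final) and 30 min at 50 °C, using Ehrlich reagent, A490. IC50 normalised to DMSO (0%) and 500 nM reference standard (100%).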

Chain of human IDO1 (P14902 whole entry): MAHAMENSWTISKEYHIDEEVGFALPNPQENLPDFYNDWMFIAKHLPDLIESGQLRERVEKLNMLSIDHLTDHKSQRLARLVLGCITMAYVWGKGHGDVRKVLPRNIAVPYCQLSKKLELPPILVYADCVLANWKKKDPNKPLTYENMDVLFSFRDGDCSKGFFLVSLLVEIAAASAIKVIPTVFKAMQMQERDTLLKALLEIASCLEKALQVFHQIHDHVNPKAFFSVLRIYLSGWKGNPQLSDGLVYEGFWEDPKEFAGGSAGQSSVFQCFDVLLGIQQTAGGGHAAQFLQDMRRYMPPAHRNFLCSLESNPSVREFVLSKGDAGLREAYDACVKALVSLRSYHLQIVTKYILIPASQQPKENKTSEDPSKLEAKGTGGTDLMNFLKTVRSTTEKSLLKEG

`COCC(CC(=O)O)c1ccc(N(CC(C)C)C2CCCCC2)c(NC(=O)Cc2ccc(Cl)cc2F)c1` (single isomer, unassigned) [Example 1245, 3-(3-(2-(4-Chloro-2-fluorophenyl)acetamido)-4-(cyclohexyl(isobutyl)amino)phenyl)-4-methoxybutanoic acid] showed a pIC50 greater than 8.30.
For `CCN(c1ccc([C@H](COC)CC(=O)O)cc1NC(=O)Nc1ccc(OC)cc1F)C1CCOCC1` (single isomer, unassigned) [Example 435], the pIC50 was less than 7.30.
In the case of `Cc1ccc(CC(=O)Nc2cc(C(C)CC(=O)O)ccc2N(CC(C)C)C2CCOCC2)cc1` (single isomer, unassigned) [Example 966, 3-(4-(Isobutyl(tetrahydro-2H-pyran-4-yl)amino)-3-(2-(p-tolyl)acetamido)phenyl)butanoic acid], the pIC50 was greater than 7.30.
Work on `CCC(CC(=O)O)c1cc(NC(=O)Nc2cnc(OC)nc2)c(N(CC(C)C)CC(C)C)cc1F` (single isomer, unassigned) [Example 1141, 3-(4-(Diisobutylamino)-2-fluoro-5-(3-(2-methoxypyrimidin-5-yl)ureido)phenyl)pentanoic acid] yielded a pIC50 greater than 8.30.
With `COCC(CC(=O)O)c1ccc(N(CC(C)C)C2CCOCC2)c(NC(=O)Nc2ccc(OC)cc2F)c1` (single isomer, unassigned) [Example 1214, 3-(3-(3-(2-Fluoro-4-methoxyphenyl)ureido)-4-(isobutyl(tetrahydro-2H-pyran-4-yl)amino)phenyl)-4-methoxybutanoic acid] the pIC50 was less than 7.30.
`CCC(CC(=O)O)c1cc(NC(=O)Nc2cc(C)no2)c(N(CC(C)C)C2CCCCC2)cc1F` (racemic) [Example 1113, (±)-3-(4-(Cyclohexyl(isobutyl)amino)-2-fluoro-5-(3-(3-methylisoxazol-5-yl)ureido)phenyl)pentanoic acid] gave a pIC50 greater than 8.30.
For `CC[C@@H](CC(=O)O)c1ccc(N(CC(C)C)CC(C)C)c(Nc2ccc(Cl)cc2)c1` (single isomer, unassigned) [Example 11], the pIC50 was greater than 7.30.
In the case of `CCOc1ccc(NC(=O)Nc2cc([C@H](CC)CC(=O)O)ccc2N(CC(C)C)C2CCS(=O)(=O)CC2)cc1` (single isomer, unassigned) [Example 212], the pIC50 was less than 7.30.
Work on `CC[C@@H](CC(=O)O)c1ccc(N(CC)C2CCOCC2)c(NC(=O)Nc2ccc(OC)cc2F)c1` (single isomer, unassigned) [Example 493] yielded a pIC50 of less than 7.30.
With `CC(CC(=O)O)c1ccc(N2C[C@@H](C)O[C@@H](C)C2)c(Nc2ccc(C#N)cc2)c1` (single isomer, unassigned) [Example 737] the pIC50 was less than 7.30.
For `CCC(CC(=O)O)c1ccc(N(CC)C2CCS(=O)(=O)CC2)c(Nc2ccc(C#N)cc2)c1` (single isomer, unassigned) [Example 337, 3-(3-((4-cyanophenyl)amino)-4-((1,1-dioxidotetrahydro-2H-thiopyran-4-yl)(ethyl)amino)phenyl) pentanoic acid], the pIC50 was greater than 8.30.
`CCOc1ccc(NC(=O)Nc2cc(C(CC)CC(=O)O)c(F)cc2N(CC(C)C)CC(C)C)cc1` (single isomer, unassigned) [Example 1132, 3-(4-(Diisobutylamino)-5-(3-(4-ethoxyphenyl)ureido)-2-fluorophenyl)pentanoic acid] was tested, and the pIC50 was greater than 8.30.
Work on `CCC(CC(=O)O)c1ccc(N(CC)C2CCCOC2)c(NC(=O)Nc2ccc(C)cc2)c1` (single isomer, unassigned) [Example 73 D1, 3-(4-(Ethyl(tetrahydro-2H-pyran-3-yl)amino)-3-(3-(p-tolyl)ureido)phenyl)pentanoic acid] yielded a pIC50 greater than 8.30.
For `CCC(CC(=O)O)c1ccc(N2CCOC[C@H]2C(C)C)c(Nc2cnc(OC)nc2)c1` (single isomer, unassigned) [Example 906], the pIC50 was greater than 7.30.
`CCN(c1ccc(C(CC(=O)O)c2ccccc2)cc1Nc1ccc(Cl)cc1F)C1CCOCC1` (single isomer, unassigned) [Example 592, 3-(3-((4-chloro-2-fluorophenyl)amino)-4-(ethyl(tetrahydro-2H-pyran-4-yl)amino)phenyl)-3-phenylpropanoic acid] gave a pIC50 of less than 7.30.
`CCOc1ccc(NC(=O)Nc2cc(C(CC)CC(=O)O)c(F)cc2N(CC(C)C)CC(C)C)cc1` (racemic) [Example 1131, (±)-3-(4-(Diisobutylamino)-5-(3-(4-ethoxyphenyl)ureido)-2-fluorophenyl)pentanoic acid] was tested, and the pIC50 was greater than 8.30.
Work on `CCC(CC(=O)O)c1ccc(N2C[C@@H]3C[C@H]2CN3Cc2ccccc2)c(Nc2ccc(C)cc2)c1` (single isomer, unassigned) [Example 666 E1] yielded a pIC50 greater than 8.30.
`CCc1cnc(Nc2cc(C(CC)CC(=O)O)ccc2N(CC(C)C)C2CCCCC2)nc1` (single isomer, unassigned) [Example 302, 3-(4-(cyclohexyl(isobutyl)amino)-3-((5-ethylpyrimidin-2-yl)amino)phenyl)pentanoic acid] showed a pIC50 greater than 8.30.
For `CCOc1ccc(Nc2cc([C@H](CC)CC(=O)O)ccc2N2CCC[C@H]2C(C)(C)O)cc1` (single isomer, unassigned) [Example 816], the pIC50 was less than 7.30.
In the case of `CCC(CC(=O)O)c1ccc(N2CCC[C@H]2C(C)(C)O)c(Nc2ccc(Cl)cc2)c1` (single isomer, unassigned) [Example 820], the pIC50 was greater than 8.30.
`CC[C@H](CC(=O)O)c1ccc(N(CC)C2CCOCC2)c(NC(=O)Nc2ccc(Cl)cc2)c1` (single isomer, unassigned) [Example 531] was tested, and the pIC50 was greater than 8.30.
`CCC(CC(=O)O)c1ccc(N(CC2CC2)C2CCOCC2)c(Nc2ccc3c(c2)OC(F)(F)O3)c1` (single isomer, unassigned) [Example 704, 3-(4-((cyclopropylmethyl) (tetrahydro-2H-pyran-4-yl)amino)-3-((2,2-difluorobenzo[d][1,3]dioxol-5-yl)amino)phenyl) pentanoic acid] was tested, and the pIC50 was greater than 7.30.
`CCc1cnc(Nc2cc([C@H](CC)CC(=O)O)ccc2N(CC)C2CCCCC2)nc1` (single isomer, unassigned) [Example 286] was tested, and the pIC50 was less than 7.30.
Work on `CC(CC(=O)O)c1ccc(N(CC(C)(C)O)C2CCOCC2)c(Nc2ccc(Cl)cc2)c1` (single isomer, unassigned) [Example 195, 3-(3-((4-Chlorophenyl)amino)-4-((2-hydroxy-2-methylpropyl)(tetrahydro-2H-pyran-4-yl)amino)phenyl)butanoic acid] yielded a pIC50 greater than 8.30.
`CC[C@H](CC(=O)O)c1ccc(N(CC)C2CCOCC2)c(Nc2ccc(OC)nc2)c1` (single isomer, unassigned) [Example 518] gave a pIC50 greater than 8.30.
For `CCC(CC(=O)O)c1ccc(N2CCC[C@H]2C(C)(C)O)c(NC(=O)Nc2ccc(Cl)cc2F)c1` (single isomer, unassigned) [Example 812], the pIC50 was less than 7.30.
For `CCC(CC(=O)O)c1cc(NC(=O)Nc2cncnc2)c(N(CC(C)C)C2CCCCC2)cc1F` (racemic) [Example 1122, (±)-3-(4-(cyclohexyl(isobutyl)amino)-2-fluoro-5-(3-(pyrimidin-5-yl)ureido)phenyl)pentanoic acid], the pIC50 was greater than 8.30.
`CCC(CC(=O)O)c1ccc(N2CCOC[C@H]2C(C)C)c(Nc2ccc3nc(C)sc3c2)c1` (single isomer, unassigned) [Example 892] gave a pIC50 greater than 7.30.
Work on `CCOc1ncc(Nc2cc([C@H](CC)CC(=O)O)ccc2N(CC)C2CCCCC2)cn1` (single isomer, unassigned) [Example 287] yielded a pIC50 greater than 8.30.
`CC[C@@H](CC(=O)O)c1ccc(N(CC)C2CCOCC2)c(NC(=O)Nc2ccc(Cl)cc2F)c1` (single isomer, unassigned) [Example 489] was tested, and the pIC50 was greater than 8.30.
`CC[C@@H](CC(=O)O)c1ccc(N(CC)C2CCOCC2)c(Nc2ccc(OC)nc2)c1` (single isomer, unassigned) [Example 478] gave a pIC50 greater than 8.30.
`CCCN(CC1CC1)c1ccc(C(CC)CC(=O)O)cc1Nc1ccc2c(c1)OC(F)(F)O2` (single isomer, unassigned) [Example 659, 3-(4-((cyclopropylmethyl) (propyl)amino)-3-((2,2-difluorobenzo[d][1,3]dioxol-5-yl)amino)phenyl)pentanoic acid] showed a pIC50 greater than 7.30.
In the case of `CCC(CC(=O)O)c1ccc(N2CCOC[C@H]2C(C)C)c(Nc2ccc3c(c2)OC(F)(F)O3)c1` (single isomer, unassigned) [Example 904], the pIC50 was greater than 8.30.
In the case of `CCC(CC(=O)O)c1ccc(N2CCC[C@H]2C(C)(C)O)c(Nc2ccc3c(c2)OC(F)(F)O3)c1` (single isomer, unassigned) [Example 837], the pIC50 was less than 7.30.
In the case of `COCC(CC(=O)O)c1ccc(N(CC(C)C)CC(C)C)c(NC(=O)Nc2cc(C)on2)c1` (racemic) [Example 998, (+/−)-3-(4-(Diisobutylamino)-3-(3-(5-methylisoxazol-3-yl)ureido)phenyl)-4-methoxybutanoic acid], the pIC50 was greater than 7.30.
`CCOc1ncc(Nc2cc(C(C)CC(=O)O)ccc2N(CC(C)(C)O)C2CCOCC2)cn1` (single isomer, unassigned) [Example 191, 3-(3-((2-Ethoxypyrimidin-5-yl)amino)-4-((2-hydroxy-2-methylpropyl)(tetrahydro-2H-pyran-4-yl)amino)phenyl)butanoic acid] gave a pIC50 of less than 7.30.
`CCC(CC(=O)O)c1ccc(N(CC(C)C)C2CCCCC2)c(Nc2ccc(C#N)cc2)c1` (single isomer, unassigned) [Example 314, 3-(3-((4-cyanophenyl)amino)-4-(cyclohexyl (isobutyl)amino)phenyl) pentanoic acid] gave a pIC50 greater than 8.30.
Compound `COCC(CC(=O)O)c1cc(F)c(N(CC(C)C)CC(C)C)c(NC(=O)Cc2ccc(C)cc2)c1` (single isomer, unassigned) [Example 1190, 3-(4-(Diisobutylamino)-3-fluoro-5-(2-(p-tolyl)acetamido)phenyl)-4-methoxybutanoic acid] has a pIC50 greater than 8.30.
In the case of `CCC(CC(=O)O)c1ccc(N(CC(C)C)C2CCCCC2)c(Nc2cnc(OC(C)C)nc2)c1` (single isomer, unassigned) [Example 648, 3-(4-(cyclohexyl(isobutyl)amino)-3-((2-isopropoxypyrimidin-5-yl)amino)phenyl)pentanoic acid], the pIC50 was greater than 8.30.
`CC(C)C(CC(=O)O)c1ccc(N(C)C(C)(C)C)c(Nc2nc3ccccc3o2)c1` (single isomer, unassigned) [1008-1] gave a pIC50 of less than 7.30.
